Source: patent publication US10336762B2 (priority 2017, dated 2019)
Read-outs that look alike come from different tables or passages of the source.

How the values were obtained:
[1] = tested on: TNFα; test: cells; format: cell-based, human; details: LPS-stimulated human monocytes, read-out: EC50 TNF
Procedure: IRAK4 Monocyte TNFα Cell Based Assay Procedure:
The cell suspension was then plated at a density of 5,000 cells/well onto black 384 well Greiner clear bottom plates. Plates were pre-spotted with test compounds and serially diluted in DMSO where 200 nL/well were delivered using the Echo 550 acoustic liquid dispenser (Labcyte®) for a final DMSO concentration of 0.5%. Plated cells were treated with compound for 1 hour at 37° C. Cells were then stimulated with 50 pg/ml of LPS (Sigma) excluding outside columns of plate used for unstimulated cell control wells. Cells were incubated for an additional 4 hours at 37° C. Cells were then spun out of the media and 5 μl of sample were taken and analyzed for total TNFα content using the TR-FRET Human TNFα detection system (CisBio). This system utilizes two labeled antibodies (cryptate and XL665) that bind to two different epitopes of the TNFα molecule and produce FRET signal proportional to the concentration of TNFα in the sample. Detection antibodies are mixed 50:50 and 5 μL were dispensed into each well. Plates were covered with clear seals and incubated at room temp overnight. […] Percent of control was calculated as follows: % Control=100×(RatioSample−Ratio0% stimulation)/(Ratio100% Stimulation−Ratio0% Stimulation) where unstimulated cells (0% stimulation) were the negative control and stimulated cells (100% stimulation) were used as the positive control.

[2] = target: IRAK4 enzyme (Homo sapiens (Human), UniProt Q9NWZ3); test: biochemical; format: biochemical; details: IRAK4 enzyme, 500 μM ATP
[3] = Homo sapiens, Monocyte, TNFα content
[4] = Homo sapiens, Monocyte, TNFα by TR-FRET

IRAK4 enzyme, sequence (Q9NWZ3 whole entry): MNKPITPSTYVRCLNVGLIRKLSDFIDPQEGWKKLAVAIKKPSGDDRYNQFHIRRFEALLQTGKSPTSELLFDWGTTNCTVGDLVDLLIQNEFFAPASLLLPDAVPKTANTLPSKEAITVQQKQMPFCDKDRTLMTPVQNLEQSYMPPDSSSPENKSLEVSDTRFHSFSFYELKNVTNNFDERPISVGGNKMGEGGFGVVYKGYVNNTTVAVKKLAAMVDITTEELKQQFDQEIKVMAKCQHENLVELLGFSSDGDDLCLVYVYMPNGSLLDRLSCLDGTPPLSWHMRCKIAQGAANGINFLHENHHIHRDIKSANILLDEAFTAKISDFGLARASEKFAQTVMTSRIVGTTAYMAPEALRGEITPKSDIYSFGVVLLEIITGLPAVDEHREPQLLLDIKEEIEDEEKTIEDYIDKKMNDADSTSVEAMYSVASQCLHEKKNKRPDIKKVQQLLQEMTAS

| SMILES | EC50 [1, 3] [nM] | IC50 ([2]; TR-FRET) [nM] | IC50 ([2]; TR-FRET (HTRF)) [nM] | EC50 [1, 4] [nM] | EC50 ([1]; TNFα content) [nM] |
| --- | --- | --- | --- | --- | --- |
| CC(C)(O)[C@H](F)CNC(=O)c1cnc(-c2ccc3cc(C#N)cnn23)cc1NC12CC(C(N)=O)(C1)C2 [Example 373, (R)-4-((3-carbamoylbicyclo[1.1.1]pentan-1-yl)amino)-6-(3-cyanopyrrolo[1,2-b]pyridazin-7-yl)-N-(2-fluoro-3-hydroxy-3-methylbutyl)nicotinamide] | 141 | < 1 |  |  |  |
| CC(C)(O)[C@H](F)CNC(=O)c1cnc(-c2ccc3cc(C#N)cnn23)cc1Nc1nccs1 [Example 375, (R)-6-(3-cyanopyrrolo[1,2-b]pyridazin-7-yl)-N-(2-fluoro-3-hydroxy-3-methylbutyl)-4-(thiazol-2-ylamino)nicotinamide] | 110 | 1 |  |  |  |
| CNC(=O)c1cnc(-c2ccc3cc(C#N)cnn23)cc1NC12CCC(C(=O)NC)(CC1)CC2 [Example 485, 6-(3-cyanopyrrolo[1,2-b]pyridazin-7-yl)-N-methyl-4-((4-(methyl-carbamoyl)bicyclo[2.2.2]octan-1-yl)amino) nicotinamide] | 39 |  | 1 |  |  |
| CC(C)(O)[C@H](F)CNC(=O)c1cnc(-c2ccc3cc(C#N)cnn23)cc1Nc1cnc(N2CCOCC2)nc1 [Example 671, (R)-6-(3-cyanopyrrolo[1,2-b]pyridazin-7-yl)-N-(2-fluoro-3-hydroxy-3-methylbutyl)-4-((2-morpholinopyrimidin-5-yl)amino)nicotinamide] | 22 |  | < 1 |  |  |
| CC(C)(O)[C@H](F)CNC(=O)c1cnc(-c2ccc3cc(C#N)cnn23)cc1Nc1ccc(N2CCCC2)nc1 [Example 877, (R)-6-(3-cyano-pyrrolo[1,2-b]pyridazin-7-yl)-N-(2-fluoro-3-hydroxy-3-methylbutyl)-4-((6-(pyrrolidin-1-yl)pyridin-3-yl)amino) nicotinamide] |  | 2 |  | 46 |  |
| CC(C)Nc1cc(-c2ccc3cc(C#N)cnn23)ncc1C(=O)NC[C@@H](F)C1(O)CC1 [Example 643, (R)-6-(3-cyanopyrrolo[1,2-b]pyridazin-7-yl)-N-(2-fluoro-2-(1-hydroxycyclo-propyl)ethyl)-4-(isopropyl-amino)nicotinamide] | 8 |  | < 1 |  |  |
| Cc1ncc(C2CCC(Nc3cc(-c4ccc5cc(C#N)cnn45)ncc3C(=O)NC[C@@H](F)C(C)(C)O)CC2)o1 (stereo partly drawn) [Example 644, (R)-6-(3-cyanopyrrolo[1,2-b]pyridazin-7-yl)-N-(2-fluoro-3-hydroxy-3-methylbutyl)-4-((4-(2-methyloxazol-5-yl)cyclo-hexyl)amino)nicotinamide] | 36 |  | 1 |  |  |
| CC(C)(O)[C@H](F)CNC(=O)c1cnc(-c2ccc3cc(C#N)cnn23)cc1Nc1ccc(F)nc1 [Example 599, (R)-6-(3-cyano-pyrrolo[1,2-b]pyridazin-7-yl)-N-(2-fluoro-3-hydroxy-3-methylbutyl)-4-((6-fluoro-pyridin-3-yl)amino) nicotinamide] | 68 |  | < 1 |  |  |
| N#Cc1cnn2c(-c3cc(Nc4cnn(CC(F)F)c4)c(C(=O)N[C@H]4CC[C@H](NC(=O)C5CC5)CC4)cn3)ccc2c1 [Example 519, 6-(3-cyanopyrrolo[1,2-b]pyridazin-7-yl)-N-((1r,4r)-4-(cyclopropane-carboxamido)cyclohexyl)-4-((1-(2,2-difluoroethyl)-1H-pyrazol-4-yl)amino) nicotinamide] | 34 |  | < 1 |  |  |
| CC(C)(O)c1coc(CNC(=O)c2cnc(-c3ccc4cc(C#N)cnn34)cc2NC23CCC(O)(CC2)CC3)n1 [Example 622, 6-(3-cyanopyrrolo[1,2-b]pyridazin-7-yl)-4-((4-hydroxybicyclo[2.2.2]octan-1-yl)amino)-N-((4-(2-hydroxypropan-2-yl)oxazol-2-yl)methyl)nicotinamide] | 407 |  | 2 |  |  |
| CC(=O)NC12CCC(Nc3cc(-c4ccc5cc(C#N)cnn45)ncc3C(=O)NCC#N)(CC1)CC2 [Example 476, 4-((4-acetamido-bicyclo[2.2.2]octan-1-yl)amino)-N-(cyano-methyl)-6-(3-cyano-pyrrolo[1,2-b]pyridazin-7-yl)nicotinamide] | 27 |  | < 1 |  |  |
| CC(C)(O)[C@H](F)CNC(=O)c1cnc(-c2ccc3cc(C#N)cnn23)cc1NC1CCC2(CCC(=O)N2)CC1 (stereo partly drawn) [Example 265, 6-(3-cyanopyrrolo[1,2-b]pyridazin-7-yl)-N-((R)-2-fluoro-3-hydroxy-3-methylbutyl)-4-(((5S,8s)-2-oxo-1-azaspiro[4.5]decan-8-yl)amino) nicotinamide] | 690 | 2 |  |  |  |
| N#Cc1cnn2c(-c3cc(NC45CCC(O)(CC4)CC5)c(C(=O)NCC4(CO)COC4)cn3)ccc2c1 [Example 711, 6-(3-cyanopyrrolo[1,2-b]pyridazin-7-yl)-4-((4-hydroxybicyclo[2.2.2]octan-1-yl)amino)-N-((3-(hydroxymethyl)oxetan-3-yl)methyl)nicotinamide] | 231 |  | 2 |  |  |
| CC(C)(O)[C@H](F)CNC(=O)c1cnc(-c2ccc3cc(C#N)cnn23)cc1N[C@H]1CC[C@H](NC(=O)C2(F)CC2)CC1 [Example 422, 6-(3-cyanopyrrolo[1,2-b]pyridazin-7-yl)-N-((R)-2-fluoro-3-hydroxy-3-methylbutyl)-4-(((1r,4R)-4-(1-fluorocyclopropane-1-carboxamido)cyclohexyl)amino)nicotinamide] | 76 |  | 2 |  |  |
| CC(C)Nc1cc(-c2ccc3cc(C#N)cnn23)ncc1C(=O)N[C@H]1CC[C@H](O)C1 [Example 189, 6-(3-cyanopyrrolo[1,2-b]pyridazin-7-yl)-N-((1S,3S)-3-hydroxycyclopentyl)-4-(isopropylamino) nicotinamide] | 136 | 6 |  |  |  |
| Cc1ncoc1-c1ccc(Nc2cc(-c3ccc4cc(C#N)cnn34)ncc2C(=O)NC[C@@H](F)C(C)(C)O)cn1 [Example 632, (R)-6-(3-cyanopyrrolo[1,2-b]pyridazin-7-yl)-N-(2-fluoro-3-hydroxy-3-methylbutyl)-4-((6-(4-methyloxazol-5-yl)pyridin-3-yl)amino) nicotinamide] | 28 |  | < 1 |  |  |
| CC(C)(N)CCNC(=O)c1cnc(-c2ccc3cc(C#N)cnn23)cc1NC12CCC(O)(CC1)CC2 [Example 345, N-(3-amino-3-methylbutyl)-6-(3-cyanopyrrolo[1,2-b]pyridazin-7-yl)-4-((4-hydroxybicyclo[2.2.2]octan-1-yl)amino)nicotinamide] | 116 | 1 |  |  |  |
| CC(C)(O)[C@H](F)CNC(=O)c1cnc(-c2ccc3cc(C#N)cnn23)cc1NC1CC(Cc2cnco2)C1 (single isomer, unassigned) [Example 638] |  |  | < 1 |  | 26 |
| CC(C)(O)[C@H](F)CNC(=O)c1cnc(-c2ccc3cc(C#N)cnn23)cc1NC1CC2(C1)CC(F)(F)C2 [Example 749, (R)-6-(3-cyanopyrrolo[1,2-b]pyridazin-7-yl)-4-((6,6-difluorospiro[3.3]heptan-2-yl)amino)-N-(2-fluoro-3-hydroxy-3-methylbutyl) nicotinamide] | 52 |  | < 1 |  |  |
| N#Cc1cnn2c(-c3cc(NC45CCC(O)(CC4)CC5)c(C(=O)NCC4(F)CC4)cn3)ccc2c1 [Example 709, 6-(3-cyanopyrrolo[1,2-b]pyridazin-7-yl)-N-((1-fluorocyclopropyl)methyl)-4-((4-hydroxy-bicyclo[2.2.2]octan-1-yl)amino)nicotinamide] | 151 |  | 3 |  |  |
| COC(=O)N1CCC2(CC(Nc3cc(-c4ccc5cc(C#N)cnn45)ncc3C(=O)NC[C@@H](F)C(C)(C)O)C2)C1 (stereo partly drawn) [Example 903, (R)-methyl 2-((2-(3-cyano-pyrrolo[1,2-b]pyridazin-7-yl)-5-((2-fluoro-3-hydroxy-3-methylbutyl)carbamoyl)pyridin-4-yl)amino)-6-azaspiro[3.4]octane-6-carboxylate] |  | 1 |  | 79 |  |
| CC(C)(O)[C@H](F)CNC(=O)c1cnc(-c2ccc3cc(C#N)cnn23)cc1Nc1ccc(-c2cn[nH]c2)nc1 [Example 172, (R)-4-((6-(1H-pyrazol-4-yl)pyridin-3-yl)amino)-6-(3-cyanopyrrolo[1,2-b]pyridazin-7-yl)-N-(2-fluoro-3-hydroxy-3-methylbutyl) nicotinamide] | 76 | < 1 |  |  |  |
| CC(C)Nc1cc(-c2ccc3cc(C#N)cnn23)ncc1C(=O)NCCC(C)(C)N [Example 252, N-(3-amino-3-methyl-butyl)-6-(3-cyano-pyrrolo[1,2-b]pyridazin-7-yl)-4-(isopropylamino) nicotinamide] | 78 | 2 |  |  |  |
| CNC(=O)[C@H](C)Nc1cc(-c2ccc3cc(C#N)cnn23)ncc1C(=O)NC[C@@H](F)C(C)(C)O [Example 108, 6-(3-cyanopyrrolo[1,2-b]pyridazin-7-yl)-N-((R)-2-fluoro-3-hydroxy-3-methylbutyl)-4-(((S)-1-(methylamino)-1-oxopropan-2-yl)amino) nicotinamide] | > 10000 | 88 |  |  |  |
| CC(C)(O)[C@H](F)CNC(=O)c1cnc(-c2ccc3cc(C#N)cnn23)cc1Nc1cnn(C(F)F)c1 [Example 48, (R)-6-(3-cyanopyrrolo[1,2-b]pyridazin-7-yl)-4-((1-(difluoromethyl)-1H-pyrazol-4-yl)amino)-N-(2-fluoro-3-hydroxy-3-methylbutyl)nicotinamide] | 28 | < 1 |  |  |  |
| CC(C)NC(=O)c1cnc(-c2ccc3cc(C#N)cnn23)cc1NC(C)C [Example 369, 6-(3-cyanopyrrolo[1,2-b]pyridazin-7-yl)-N-isopropyl-4-(isopropylamino)nicotinamide] | 922 | 16 |  |  |  |
| CC(C)Cc1cccc(Nc2cc(-c3ccc4cc(C#N)cnn34)ncc2C(=O)NC[C@@H](F)C(C)(C)O)c1 [Example 838, (R)-6-(3-cyanopyrrolo[1,2-b]pyridazin-7-yl)-N-(2-fluoro-3-hydroxy-3-methylbutyl)-4-((3-isobutylphenyl)amino) nicotinamide] |  | 57 |  | > 10000 |  |
